According to paper PMC7098970, “Neurosteroids as Selective Inhibitors of Glycine Receptor Activity: Structure-Activity Relationship Study on Endogenous Androstanes and Androstenes” (Frontiers in Molecular Neuroscience, 2020):
Entries after “also recorded” stand apart in the source; their conditions may differ. Read-outs that look alike come from different tables or passages of the source.

Key:
GABAA receptors = biological target: T1, GABAA receptors (Rattus norvegicus, UniProt P18508+P62813+P63138); assay type: cell-based
T1 construct: Single pyramidal neurons from the hippocampal CA3 area or Purkinje cells from sagittal slices of the cerebellum were isolated; endogenous in cells; host or cells: acutely isolated Purkinje cells from cerebellar slices of Wistar rats, 11-14 days old
Procedure: (§1) All experiments were conducted per the requirements of the Ministry of Public Health of the Russian Federation and were consistent with the EU directive for Use of Experimental Animals of the European Community. […] The cells were isolated from transverse hippocampal slices as described in detail elsewhere ([Vorobjev, 1991]). Briefly, the slices (200–500 μm) of Wistar rats (11–14 days of age) hippocampus or cerebellum were incubated at room temperature for at least 2 h in a solution containing the following components (in mM): 124 NaCl, 3 KCl, 2 CaCl2, 2 MgSO4, 25 NaHCO3, 1.3 NaH2PO4, 10 D-glucose, pH 7.4. The saline was continuously stirred and bubbled with carbogen (95% 0_2 + 5% CO2). Single pyramidal neurons from the hippocampal CA3 area or Purkinje cells from sagittal slices of the cerebellum were isolated by a vibrating fused glass pipette with a spherical tip.
(§2) Isolated neurons were patch clamped and then lifted into the outflow of the control bath solution. […] The substances were applied through glass capillary, 0.1 mm in diameter, which could be rapidly displaced laterally ([Vorobjev et al., 1996]). A fast perfusion technique allows a complete exchange of external solution surrounding a neuron within 20 ms. […] Transmembrane currents were recorded using a conventional patch-clamp technique in the whole-cell configuration. […] The solution in the recording pipette contained the following (in mM): 40 CsF, 100 CsCl, 0.5 CaCl2, 5 EGTA, 3 MgCl2, 4 NaATP, 5 HEPES, pH 7.3. The composition of the extracellular solution was as follows (in mM): 140 NaCl, 3 KCl, 3 CaCl2, 3 MgCl2, 10 D-glucose, 10 HEPES hemisodium, and pH 7.4. Recording of the currents was performed using EPC7 patch-clamp amplifier (HEKA Electronik, Germany). The holding potential was maintained at −70 mV. Transmembrane currents were filtered at 3 kHz, stored and analyzed with IBM-PC computer, using homemade software.
(§3) Statistical analysis was performed with the help of Prism Graphpad software. All comparisons were made with ANOVA-test using Dunnett’s multiple comparison test and Student’s unpaired t-test at a significance level of p = 0.05. N = 5–8 cells from 3 to 4 animals for every concentration. […] The meanings of asterisks (probability levels) in figures is the following: ^∗P < 0.05, ^∗∗P < 0.01. The IC50 values for steroids inhibition of the IGly and IGABA were determined using the equation: Y = 1 – [max/(1 + (IC50/C)^n)], where max is the maximum inhibition attainable, C is the concentration of steroid, IC50 is the half-maximal inhibitory concentration and n is the slope factor (Hill coefficient).
(§4) First, the ability of steroids to affect the holding current at voltage-clamp regime was tested. […] The experiments with IGly were conducted on rat hippocampal neurons, and experiments with IGABA were conducted on rat cerebellar Purkinje cells.

glycine receptor (GlyR) = assay: Glycine-induced chloride current (IGly), whole-cell patch-clamp in isolated pyramidal neurons of the rat hippocampus; assay type: cell-based; conditions: for τdes/τdes control of IGly: 0.1 μM of steroid; for τdes/τdes control of IGly / Ipeak/Ipeak control of IGly: mean ± SEM, normalized; for Ipeak/Ipeak control of IGly: 10 μM of steroid; for Ipeak max (maximum inhibition attainable) of IGly / Ipeak Hill coefficient of IGly: peak amplitude
Procedure: as §1, §2, §3, §4

[1] = footnote b: did not modulate IGABA up to the concentration of 10 μM, 5 μM GABA
[2] = Hill fit, time constant of desensitization, 100 μM glycine
[3] = read-out: Ipeak IC50 of IGly, inhibition of peak amplitude, 100 μM glycine
[4] = read-out: τdes IC50 of IGly, acceleration of desensitization (decrease in τdes), 100 μM glycine
[5] = time constant of desensitization, 100 μM glycine

T1 sequence (P62813 28-455): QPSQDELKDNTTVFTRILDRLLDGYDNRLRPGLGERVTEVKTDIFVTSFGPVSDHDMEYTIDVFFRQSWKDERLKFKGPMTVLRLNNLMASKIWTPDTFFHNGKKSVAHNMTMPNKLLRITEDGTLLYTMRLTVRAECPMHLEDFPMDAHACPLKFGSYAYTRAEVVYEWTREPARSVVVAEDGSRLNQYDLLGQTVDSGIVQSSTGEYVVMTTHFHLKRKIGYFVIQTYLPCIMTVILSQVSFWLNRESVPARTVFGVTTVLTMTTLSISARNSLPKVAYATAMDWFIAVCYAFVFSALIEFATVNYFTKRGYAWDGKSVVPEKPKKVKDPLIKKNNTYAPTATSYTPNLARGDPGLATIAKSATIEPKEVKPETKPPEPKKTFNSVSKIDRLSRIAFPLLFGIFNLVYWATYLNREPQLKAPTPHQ
T1 sequence (P63138 25-474 limits assumed): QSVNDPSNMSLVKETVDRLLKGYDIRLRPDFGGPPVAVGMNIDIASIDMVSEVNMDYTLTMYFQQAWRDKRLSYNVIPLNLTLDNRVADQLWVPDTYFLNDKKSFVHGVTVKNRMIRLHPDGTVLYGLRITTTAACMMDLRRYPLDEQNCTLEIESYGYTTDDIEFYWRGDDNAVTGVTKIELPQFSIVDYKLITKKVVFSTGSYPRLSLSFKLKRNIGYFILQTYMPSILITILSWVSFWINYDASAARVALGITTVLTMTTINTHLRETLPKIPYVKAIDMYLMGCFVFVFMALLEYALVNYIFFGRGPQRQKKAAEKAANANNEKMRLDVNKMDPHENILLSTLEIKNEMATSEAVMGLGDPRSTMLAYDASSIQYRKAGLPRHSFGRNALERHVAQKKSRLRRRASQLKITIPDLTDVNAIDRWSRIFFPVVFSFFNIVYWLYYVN
T1 sequence (P18508 39-466): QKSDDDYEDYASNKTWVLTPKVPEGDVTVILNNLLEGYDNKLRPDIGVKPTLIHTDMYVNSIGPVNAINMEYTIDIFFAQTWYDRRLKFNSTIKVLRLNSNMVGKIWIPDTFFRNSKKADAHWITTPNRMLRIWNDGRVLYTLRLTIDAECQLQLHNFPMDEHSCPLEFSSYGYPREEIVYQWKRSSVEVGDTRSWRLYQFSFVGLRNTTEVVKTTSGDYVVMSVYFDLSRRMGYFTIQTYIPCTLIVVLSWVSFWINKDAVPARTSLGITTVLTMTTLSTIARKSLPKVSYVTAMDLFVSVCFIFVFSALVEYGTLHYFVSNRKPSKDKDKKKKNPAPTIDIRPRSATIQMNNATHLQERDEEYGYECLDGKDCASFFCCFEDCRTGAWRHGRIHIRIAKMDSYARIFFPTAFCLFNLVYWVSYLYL

| SMILES | τdes/τdes control of IGABA (GABAA receptors; 10 μM of steroid, 5 μM GABA) | Ipeak/Ipeak control of IGABA (GABAA receptors; 50 μM of steroid, 5 μM GABA) | τdes/τdes control of IGly (glycine receptor (GlyR); 100 μM glycine) | τdes IGly (effect on time constant of desensitization) (glycine receptor (GlyR); 10 μM compound, 100 μM glycine) | Ipeak/Ipeak control of IGly (glycine receptor (GlyR); 100 μM glycine) | Ipeak max (maximum inhibition attainable) of IGly (glycine receptor (GlyR); Hill fit, 100 μM glycine) | τdes max (maximum inhibition attainable) of IGly (glycine receptor (GlyR); [2]) | Ipeak Hill coefficient of IGly (glycine receptor (GlyR); 100 μM glycine) | IC50 (glycine receptor (GlyR); [3]) | IC50 (glycine receptor (GlyR); [4]) | τdes Hill coefficient of IGly (glycine receptor (GlyR); [5]) | Ipeak/Ipeak control of IGABA (GABAA receptors) | τdes IGABA (effect in words) (GABAA receptors) | τdes/τdes control of IGABA (GABAA receptors) | also measured |
| --- | --- | --- | --- | --- | --- | --- | --- | --- | --- | --- | --- | --- | --- | --- | --- |
| C[C@]12CC[C@H]3[C@@H](CCC4=CC(=O)CC[C@@]43C)[C@@H]1CC[C@@H]2O [Compound 1, 17β-Hydroxyandrost-4-en-3-one] | 0.99 ± 0.02 | 0.86 ± 0.03 | 0.68 ± 0.05 | −67% | 0.75 ± 0.03 | 0.58 ± 0.10 | 0.72 ± 0.08 | 1.1 ± 0.32 | 19.3 ± 2.3 µM | 0.13 ± 0.06 µM | 0.58 ± 0.20 |  |  |  | Acceleration of decay (desensitization) of IGABA (GABAA receptors; 50 μM compound, 5 μM GABA): 23–45%; Decrease in the peak amplitude of IGABA (GABAA receptors; 50 μM compound, 5 μM GABA): 14–25%; τdes IGABA (effect in words) (GABAA receptors; [1]): ^bNo effect; Effect on IGly in words (glycine receptor (GlyR); 0.1 and 1 μM compound): accelerated desensitization without effect on the peak amplitude; Effect on IGly in words (glycine receptor (GlyR); 10 and 100 μM compound): acceleration of desensitization and a decrease in peak amplitude |
| C[C@]12CCC(=O)C=C1CC[C@@H]1[C@@H]2CC[C@]2(C)C(=O)CC[C@@H]12 [Compound 2, Androst-4-en-3,17-dione] | 0.98 ± 0.02 | 0.77 ± 0.02 | 0.73 ± 0.06 | −84% | 0.82 ± 0.02 | 0.55 ± 0.09 | 0.97 ± 0.10 | 1.1 ± 0.36 | 18.1 ± 2.9 µM | 0.49 ± 0.16 µM | 0.60 ± 0.11 |  |  |  | Acceleration of decay (desensitization) of IGABA (GABAA receptors; 50 μM compound, 5 μM GABA): 23–45%; Decrease in the peak amplitude of IGABA (GABAA receptors; 50 μM compound, 5 μM GABA): 14–25%; τdes IGABA (effect in words) (GABAA receptors; [1]): ^bNo effect |
| C[C@]12CCC(=O)C[C@@H]1CC[C@@H]1[C@@H]2CC[C@]2(C)[C@@H](O)CC[C@@H]12 [Compound 3, 17β-Hydroxy-5α-androstan-3-one] |  |  | 0.72 ± 0.06 |  | 0.78 ± 0.03 | 0.61 ± 0.08 |  | 0.86 ± 0.15 | 20.1 ± 2.8 µM |  |  | 0.95 ± 0.03 | ^cNo effect | 0.98 ± 0.02 | Modulation of IGABA (peak amplitude or rate of decay/desensitization) (GABAA receptors): did not modulate; also recorded: remained inactive; also recorded: did not change; τdes Hill coefficient of IGly (glycine receptor (GlyR)): 0.58 ± 0.13; τdes IGly (effect on time constant of desensitization) (glycine receptor (GlyR)): −82%; τdes max (maximum inhibition attainable) of IGly (glycine receptor (GlyR)): 0.97 ± 0.11; IC50 (glycine receptor (GlyR); read-out: τdes IC50 of IGly): 0.42 ± 0.14 µM |
| C[C@]12CC[C@H](O)C[C@@H]1CC[C@@H]1[C@@H]2CC[C@]2(C)C(=O)CC[C@@H]12 [Compound 4, 3β-Hydroxy-5α-androstan-17-one] |  |  | 0.66 ± 0.05 |  | 0.75 ± 0.03 | 0.64 ± 0.08 |  | 0.97 ± 0.21 | 17.1 ± 2.3 µM |  |  | 0.75 ± 0.03 |  | 0.80 ± 0.03 | Acceleration of decay (desensitization) of IGABA (GABAA receptors): 23–45%; Decrease in the peak amplitude of IGABA (GABAA receptors): 14–25%; τdes IGABA (effect on time constant of desensitization) (GABAA receptors): −20%; τdes Hill coefficient of IGly (glycine receptor (GlyR)): 0.59 ± 0.16; τdes IGly (effect on time constant of desensitization) (glycine receptor (GlyR)): −64%; τdes max (maximum inhibition attainable) of IGly (glycine receptor (GlyR)): 0.70 ± 0.07; IC50 (glycine receptor (GlyR); read-out: τdes IC50 of IGly): 0.12 ± 0.05 µM |
| C[C@]12CC[C@H]3[C@@H](CCC4=CC(=O)CC[C@@]43C)[C@@H]1CC[C@H]2O [Compound 5, 17α-Hydroxyandrost-4-en-3-one] | 0.97 ± 0.03 | 1.12 ± 0.08 | 0.66 ± 0.04 | −72% | 0.80 ± 0.04 | 0.46 ± 0.09 | 0.81 ± 0.11 | 1.2 ± 0.34 | 17 ± 2.9 µM | 0.22 ± 0.08 µM | 0.51 ± 0.15 |  |  |  | τdes IGABA (effect in words) (GABAA receptors; footnote c: did not modulate IGABA up to the concentration of 50 μM, 5 μM GABA): ^cNo effect; Modulation of IGABA (peak amplitude or rate of decay/desensitization) (GABAA receptors; up to 50 μM compound, 5 μM GABA): did not modulate; also recorded: remained inactive; also recorded: did not change |
| C[C@]12CCC(=O)C[C@@H]1CC[C@@H]1[C@@H]2CC[C@]2(C)C(=O)CC[C@@H]12 [Compound 6, 5α-Androstane-3,17-dione] |  |  | 0.65 ± 0.03 | −72% | 0.76 ± 0.03 | 0.51 ± 0.05 | 0.86 ± 0.10 | 1.2 ± 0.35 | 16.3 ± 2.4 µM | 0.26 ± 0.09 µM | 0.48 ± 0.10 | 0.92 ± 0.04 | ^cNo effect | 0.99 ± 0.02 | Modulation of IGABA (peak amplitude or rate of decay/desensitization) (GABAA receptors): did not modulate; also recorded: remained inactive; also recorded: did not change |
| C[C@]12CC[C@H]3[C@@H](CC=C4C[C@@H](O)CC[C@@]43C)[C@@H]1CC[C@@H]2O [Compound 7, 3β,17β-Androst-5-ene-3,17-diol] |  |  | 0.72 ± 0.03 |  | 0.75 ± 0.02 | 0.52 ± 0.09 |  | 0.71 ± 0.16 | 16.2 ± 2.3 µM |  |  | 0.77 ± 0.06 | ^bNo effect | 0.98 ± 0.02 | Acceleration of decay (desensitization) of IGABA (GABAA receptors): 23–45%; Decrease in the peak amplitude of IGABA (GABAA receptors): 14–25%; τdes Hill coefficient of IGly (glycine receptor (GlyR)): 0.56 ± 0.13; τdes IGly (effect on time constant of desensitization) (glycine receptor (GlyR)): −70%; τdes max (maximum inhibition attainable) of IGly (glycine receptor (GlyR)): 0.81 ± 0.09; IC50 (glycine receptor (GlyR); read-out: τdes IC50 of IGly): 0.29 ± 0.12 µM |
| C[C@]12CC[C@H](O)CC1=CC[C@@H]1[C@@H]2CC[C@]2(C)C(=O)CC[C@@H]12 [Compound 8, 3β-Hydroxy-androst-5-en-17-one] | 0.88 ± 0.05 | 0.75 ± 0.04 | 0.67 ± 0.05 | −79% | 0.70 ± 0.01 | 0.73 ± 0.08 | 0.88 ± 0.09 | 0.92 ± 0.14 | 21.3 ± 2.2 µM | 0.24 ± 0.09 µM | 0.57 ± 0.14 |  |  |  | τdes IGABA (effect on time constant of desensitization) (GABAA receptors; 10 μM compound, 5 μM GABA): −12%; Acceleration of decay (desensitization) of IGABA (GABAA receptors; 50 μM compound, 5 μM GABA): 23–45%; Decrease in the peak amplitude of IGABA (GABAA receptors; 50 μM compound, 5 μM GABA): 14–25% |
| C[C@]12CCC(=O)C[C@H]1CC[C@@H]1[C@@H]2CC[C@]2(C)C(=O)CC[C@@H]12 [Compound 9, 5β-Androstane-3,17-dione] |  |  | 0.72 ± 0.07 | −68% | 0.77 ± 0.03 | 0.68 ± 0.09 | 0.79 ± 0.11 | 1.0 ± 0.19 | 22 ± 2.8 µM | 0.4 ± 0.12 µM | 0.56 ± 0.14 | 0.99 ± 0.01 | ^cNo effect | 0.97 ± 0.03 | Modulation of IGABA (peak amplitude or rate of decay/desensitization) (GABAA receptors): did not modulate; also recorded: remained inactive; also recorded: did not change |
| CN1CCc2cc3c(cc2[C@H]1[C@@H]1OC(=O)c2c1ccc1c2OCO1)OCO3 [bicuculline, reference compound] |  |  |  |  |  |  |  |  |  |  |  |  |  |  | Block of IGABA (GABAA receptors): reversibly blocked |
